In patent US11672795B2, “Compositions and methods for treating pulmonary vascular disease” (UNIVERSITY OF PITTSBURGH-OF THE COMMONWEALTH SYSTEM OF …, priority 2016, dated 2023):

Columns and labels:
Type in all cases: cell-based, human
GLS1 = experiment: Targeted LC-MS/MS of intracellular metabolites in PAECs on soft or stiff matrix with GLS inhibitors; conditions: stiff matrix, BPTES 10 μM, DON 5 μM, C968 10 μM
Experimental: HEK293T cells (American Type Culture Collection) were cultivated in DMEM containing 10% fetal bovine serum (FBS). Primary human pulmonary arterial endothelial cells (PAECs) were grown in EGM-2 cell culture media (Lonza), and experiments were performed at passages 3 to 6. Primary human pulmonary arterial smooth muscle cells (PASMCs) were cultured in SmGM-2 cell culture media (Lonza), and experiments were performed at passages 3 to 9. Inhibitors of GLS1 (2, 3): BPTES (Bis-2-(5-phenylacetamido-1,3,4-thiadiazol-2-yl)ethyl sulphide), DON (6-Diazo-5-oxo-L-norleucine), and C968 (Glutaminase Inhibitor, Compound 968, 5-(3-Bromo-4-(dimethylamino)phenyl)-2,2-dimethyl-2,3,5,6-tetrahydrobenzo[a]phenanthridin-4(1H)-one) were purchased from Sigma-Aldrich and used at concentration of 10 μM, 5 μM and 10 μM respectively. Glutamate was purchased from Sigma Aldrich and used at concentration of 2 mM. Aspartate was purchased from Sigma Aldrich and used at concentration of 10 mM.
Metabolite extraction was performed essentially as described with minor modifications (35). Briefly, metabolites were extracted from cultured cells and CD31+ cells on dry ice using 80% aqueous methanol pre-cooled at −80° C. Metabolites were extracted from plasma pre-cleared by centrifugation at 20,000×g for 10 min at 4° C. Supernatants were extracted with four volumes of 100% methanol pre-cooled at −80° C. for four hours at −80° C. An internal standard, [^13C4]-2-oxoglutarate (Cambridge Isotope Laboratories) was added during metabolite extraction. Insoluble material from both cell and plasma extractions was removed by centrifugation at 20,000×g for 15 min at 4° C. The supernatant was analysed by targeted LC-MS/MS as previously described (36). Metabolites were separated using a ZIC-HILIC stationary phase (150 mm×2.1 mm×[…]; Merck). The MS parameters were optimized using a glutamine standard solution. Monitored mass transitions were 87>87 (pyruvate), 115>73+99 (succinate), 132>88 (aspartate), 145>101 (20G), […] (glutamine), 146>128 (glutamate), and 149>105 ([^13C4]-20G). Mass transitions and retention time windows were confirmed by the analysis of neat and matrix-spiked standards. Peak areas were quantified by Xcalibur Software (Thermo) and manually reviewed.
To determine whether GLS1 is critical for stiffness-induced and YAP/TAZ-dependent glutaminolysis, PAECs were cultivated in soft or stiff matrix, and exposed to known inhibitors of two isoforms of GLS1 (KGA and GAC), BPTES (Bis-2-(5-phenylacetamido-1,3,4-thiadiazol-2-yl)ethyl sulphide), DON (6-Diazo-5-oxo-L-norleucine), or CB-968 (glutaminase inhibitor, compound 968, C-968) (FIG. 3A-C) or siRNA (si-GLS; FIG. 3D-G). As quantified by LC-MS/MS, inhibition of GLS in PAECs blunted the stiffness-induced processes of glutamine consumption, glutamate production, and aspartate production (FIGS. 3A and E). […] Similar alterations of metabolic activity were observed when inhibiting GLS1 in PASMCs (data not shown).

PAECs [1] = experiment: Apoptosis of PAECs on soft or stiff matrix (caspase 3/7 activity, cleaved caspase-3 staining)
Experimental: A-C) PAECs were plated on soft (1 kPa) or stiff (50 kPa) matrix and exposed to indicated treatments. Apoptosis (A-C) and proliferation (B-C) were quantified 48 h after plating. […] In all panels, mean expression in control groups (soft matrix) was assigned a fold change of 1, to which relevant samples were compared. Data are expressed as mean±SD (*P<0.05; ** P<0.01, ***P<0.001).
(§1) After various indicated treatments, cultured cells were fixed with PBS/PFA 4% for 10 min and permeabilized with PBS/Triton 100×0.1% for 10 min. The cells were then incubated with anti-PCNA (#4912; 1/100; Invitrogen), anti-Ki67 (ab15580; 1/200; Abcam), and/or anti-cleaved caspase-3 (1/200; Cell Signaling) at room temperature for 2 hours. Secondary antibodies coupled with Alexa-594 and/or Alexa-488 (Thermo Scientific) were used at 1/500. Nuclei were counterstained with DAPI (Sigma).
Caspase 3/7 activity was quantified using the Caspase-Glo 3/7 Assay (Promega), according to manufacturer's instructions. Briefly, cells were plated on hydrogel of different stiffness and treated as described. Twenty four hours after plating, cells were cultured in the presence or absence of serum for twenty-four hours. Cells were then lysed and 10 μg of total protein were incubated for 1 h with the caspase substrates, and luminescence was quantified by plate reader (SynergyHTX multi-mode reader, Biotek).

PAECs [2] = experiment: Proliferation of PAECs (cell count, BrdU pulse, PCNA staining); conditions: PAECs, stiff matrix, 48 h after plating
Experimental: A-C) PAECs were plated on soft (1 kPa) or stiff (50 kPa) matrix and exposed to indicated treatments. Apoptosis (A-C) and proliferation (B-C) were quantified 48 h after plating. […] Apoptosis (as reflected by cleaved caspase-3 staining, CC-3+) was increased by serum starvation in both soft and stiff conditions but was not affected by GLS1 inhibition. In all panels, mean expression in control groups (soft matrix) was assigned a fold change of 1, to which relevant samples were compared. Data are expressed as mean±SD (*P<0.05; ** P<0.01, ***P<0.001).
as §1
After specified pre-treatment or transfection protocols as indicated, PAECs or PASMCs were plated in triplicate in 6 well plates at 30 000 cells per well. After overnight incubation for cells to adhere, 6 wells were counted to determine initial count at time of treatments (glutamate, aspartate, BPTES, DON or C968). After 2 days, 4 days or 6 days, the contents of the wells were trypsinized and counted, and proliferation rate was calculated.
Exponentially growing cells were plated in the indicated matrix for 48 hours.

For `CN(C)c1ccc(C2Nc3ccc4ccccc4c3C3=C2C(=O)CC(C)(C)C3)cc1Br` (centres unmarked) [C968, 5-(3-Bromo-4-(dimethylamino)phenyl)-2,2-dimethyl-2,3,5,6-tetrahydrobenzo[a]phenanthridin-4(1H)-one], the “alterations of metabolite expression in stiff matrix (stiffness-induced glutamine consumption, glutamate production, aspartate production)” value (GLS1) was “blunted”, the “lactate/pyruvate ratio (glycolysis)” value (GLS1) was “decreased” and the “apoptosis (cleaved caspase-3 staining, CC-3+)” value (PAECs [1]; serum starvation, soft and stiff conditions) was “not affected”. The “caspase 3/7 activity” value (PAECs [1]; soft (1 kPa) or stiff (50 kPa) matrix, 24 h after serum depletion, vs vehicle control) was “No significant changes” and the “proliferation in stiff matrix (PCNA+)” value (PAECs [2]) was “decreased”.
